Data on 13 compounds can be found in patent US11298361B2, “Fused benzazepines for treatment of Tourette's Syndrome” (EMALEX BIOSCIENCES, INC., priority 2012, dated 2022).

As a reminder, the Ki is a dissociation constant, usually derived from enzyme kinetics or from competition with a known ligand.

Read-outs that look alike come from different tables or passages of the source.

Data set [1] deals with CAR. The settings on record: cited from earlier work.
For data set [2], the target named is D1/D5 receptor (^3H-23390). The settings on record: radioligand ^3H-23390; cited from earlier work.
The test system of data set [3] is adult patients with Tourette's Syndrome. In words: Open-label clinical study in adult patients with Tourette's Syndrome. The format is in vivo, human. How it is done: A clinical program was carried out to test the safety, tolerability, and activity of ecopipam in adult patients with Tourette's Syndrome. A multicenter, open-label, nonrandomized study in 25 to 30 subjects was conducted to assess the activity and safety of ecopipam in subjects with TS. […] Assessment was performed at each visit. A follow-up visit was conducted via telephone at Week 10 to record any adverse events. Ecopipam was administered daily before bedtime at 50 mg/day for Week 1 and Week 2 and at 100 mg/day for Weeks 3-8. This treatment regimen is within the scope of the present invention; the compositions and various formulations described herein can be administered as described in this Example. The activity of ecopipam was measured using the following clinical rating scales: (1) Yale Global Tic Severity Scale (YGTSS; data based on this scoring system are presented below); (2) ADHD self-report symptom checklist (ASRS); (3)Yale-Brown Obsessive Compulsive Scale (YBOCS); (4) Premonitory Urge for […]; and (6) Clinical Global Impression Improvement and Severity Scales (CGI). The demographics of the study population were as follows: eighty three percent of the subjects were male (15 out of 18); fifteen were Caucasian, two were African-American, and one was an Asian/Pacific Islander. […] Four patients reported AEs that were rated as severe and included the following: sedation, insomnia, decreased appetite, hypersensitivity, cold sweat, and feeling jittery. The following AEs were rated mild to moderate and were reported in more than three subjects: fatigue, insomnia, nausea, sedation, headache, restlessness, anxiety, muscle twitching, dysphoria, and sleeplessness. These side effects are similar to those seen in other studies with ecopipam and were not unexpected.

Data set [4] concerns D1 receptor. Particulars: rats, D1-agonist discriminative stimulus; cited from earlier work.
In data set [5] the test system is D1/D5 receptors. The settings on record: rat brain homogenates, low concentrations; cited from earlier work.
The test system of data set [6] is adenosine, benzodiazepine, glutamate/AMPA/kainate, GABA, muscarinic, nicotinic, opiate, alpha- or beta-adrenergic sites. In words: Binding at other receptor sites.
The subject of data set [7] is D1 receptors. Put plainly: In vitro studies on cAMP second messenger (adenylate cyclase). It counts as biochemical. On the procedure:
(§1) Activation of D1 receptors by dopamine and similar agonists stimulates the production of cyclic AMP (cAMP) via activation of adenylate cyclase. […] To ensure that there was no species specificity to the receptor binding profile, ecopipam's potency and selectivity were evaluated using cloned human receptors. […] Positron emission tomography (PET) studies using radiolabeled ecopipam have been conducted in healthy volunteers (Karlsson et al., Psychopharmacol. 121:300-308, 1995).

Data set [8] has as its system hD1/hD5 receptors. Put plainly: Binding to cloned human receptors. On the procedure: as §1
For data set [9], the target named is dopamine D1 receptors in human brain (Homo sapiens, UniProt P21728). Particulars: radiolabeled ecopipam, healthy volunteers; cited from earlier work.
For data set [10], the target named is D2 receptor (^3H-Spip) (Homo sapiens, UniProt P14416).
Where [11] appears, read: radioligand ^3H-Spip; read-out: Ki (nM) ^3H-Spip; cited from earlier work.

Sequence of D2 receptor (^3H-Spip) (P14416 whole entry): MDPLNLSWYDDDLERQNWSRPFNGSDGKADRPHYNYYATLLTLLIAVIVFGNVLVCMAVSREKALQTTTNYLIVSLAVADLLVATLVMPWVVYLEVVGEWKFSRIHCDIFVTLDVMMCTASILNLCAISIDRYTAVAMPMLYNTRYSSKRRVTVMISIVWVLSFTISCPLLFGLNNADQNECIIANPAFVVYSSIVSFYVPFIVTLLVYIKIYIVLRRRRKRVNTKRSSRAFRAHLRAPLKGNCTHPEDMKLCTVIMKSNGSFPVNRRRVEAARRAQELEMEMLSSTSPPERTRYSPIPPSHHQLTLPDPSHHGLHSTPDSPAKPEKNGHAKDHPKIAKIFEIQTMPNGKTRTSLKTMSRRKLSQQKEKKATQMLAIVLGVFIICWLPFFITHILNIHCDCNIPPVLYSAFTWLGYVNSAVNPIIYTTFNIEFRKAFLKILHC
Sequence of dopamine D1 receptors in human brain (P21728 whole entry): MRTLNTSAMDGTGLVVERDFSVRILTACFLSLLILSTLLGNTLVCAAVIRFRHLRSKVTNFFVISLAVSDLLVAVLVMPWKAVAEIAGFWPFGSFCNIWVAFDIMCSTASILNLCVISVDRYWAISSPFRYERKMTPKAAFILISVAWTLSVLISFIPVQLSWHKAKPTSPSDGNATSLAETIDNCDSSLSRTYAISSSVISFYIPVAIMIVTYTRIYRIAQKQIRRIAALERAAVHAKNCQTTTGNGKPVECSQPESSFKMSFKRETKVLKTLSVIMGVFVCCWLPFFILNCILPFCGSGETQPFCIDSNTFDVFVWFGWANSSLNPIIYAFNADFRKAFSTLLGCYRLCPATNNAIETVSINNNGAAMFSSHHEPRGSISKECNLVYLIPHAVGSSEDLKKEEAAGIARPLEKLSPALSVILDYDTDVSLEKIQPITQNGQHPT

Consider `CN1CCc2cc(Cl)c(O)cc2[C@H]2c3ccccc3CC[C@@H]21` [Q=CH2, n=1, 7b(R):7a(S)(−), X=Cl, Y=OH], for which, in data set [1], the “CAR (MED), po” value is reported as 30 (po).

As to `CN1CCc2ccc(O)cc2C2c3ccccc3OCC21` (stereo not drawn) [Q=O, n=1, trans, X=H, Y=OH], the Ki in [2] is 121 nM.

Consider `CN1CCc2ccc(O)cc2C2c3ccccc3CCC21` (stereo not drawn) [Q=CH2, n=1, trans, X=H, Y=OH], for which the Ki in data set [2] is 80 nM.

Take `CN1CCc2cc(Cl)c(O)cc2[C@@H]2c3ccccc3CC[C@H]21` [Q=CH2, n=1, 7b(S):7a(R)(+), X=Cl, Y=OH]: the “CAR (MED), po” value in data set [1] is listed as >30 (po).

On to `CN1CCc2cc(Cl)c(O)cc2[C@H]2c3ccccc3CC[C@@H]21` [ecopipam, (−)-trans-6,7,7a,8,9,13b-hexahydro-3-chloro-2-hydroxy-N-methyl-5H-benzo [d]-naphtho-[2,1-b]azepine], for which the “Patients with at least one grade change in CGI-S score” value in data set [3] (9 of the 15 patients, p≤0.01 Student's t test) is given as 60%. The “Subjects reporting adverse events” value in [3] (18 subjects) is “All subjects reported at least one adverse event”. Also, the “Change in YGTSS scores, intent to treat analysis” value in data set [3] (entire population n=18) is “statistically significant changes were evident”. The “Change in YGTSS scores (motor, phonic, total severity), baseline to last visit” value in data set [3] (fifteen patients who completed the trial, 50 mg/day Weeks 1-2, 100 mg/day Weeks 3-8) is reported as “highly statistically significant (Paired t-Test p<0.001) reduction”. Also, in data set [3] (human, in vivo), the “Changes in lab tests” value is listed as “none were of clinical significance” and the “Changes in vital signs” value is “no clinically significant changes in vital signs”. In [3] (requiring medical intervention), the Serious adverse events result is reported as “no serious adverse events”. Besides, the “Patients reporting AEs rated as severe” value in data set [3] (sedation, insomnia, decreased appetite, hypersensitivity, cold sweat, feeling jittery) is reported as “Four”. Moreover, the “Action on dopamine-agonist-induced behaviors” value in data set [4] is “selective D1 antagonist”. In addition, the “Affinity for D1/D5 receptors” value in data set [5] is listed as “high affinity”. Also, in [6], the “Concentration multiple at which it did not bind to other sites” value is > 700 fold. Moreover, the “Functional action on cAMP second messenger” value in [7] is listed as “antagonist”. Besides, in [8], the “Affinity for hD1/hD5 receptors” value is given as “high affinity”. For the same compound, the “PET binding in the human brain” value in [9] is “specific binding in the human brain”.

On to `Cc1cc2c(cc1O)C1c3ccccc3CCC1N(C)CC2` (stereo not drawn) [Q=CH2, n=1, trans, X=CH3, Y=OH], for which the Ki in data set [2] is 119 nM.

Turning to `COc1cc2c(cc1O)C1c3ccccc3CCC1N(C)CC2` (stereo not drawn) [Q=CH2, n=1, cis, X=CH3O, Y=OH], the Ki in data set [2] is 6450 nM; in data set [10] (read-out: Ki (nM) ^3H-Spip; radioligand ^3H-Spip; cited from earlier work) it was > 100000 nM.

In the case of `COc1cc2c(cc1O)C1c3ccccc3CCCC1N(C)CC2` (stereo not drawn) [Q=CH2, n=2, trans, X=CH3O, Y=OH], the Ki in [2] was 292 nM; in [10] (setting [11]), > 100000 nM. Further, the “CAR (MED), sc” value in [1] is recorded as 10 (sc).

Take `CN1CCc2cc(Cl)c(O)cc2C2c3ccccc3CCC21` (stereo not drawn) [Q=CH2, n=1, trans, X=Cl, Y=OH]: in data set [1], the CAR (MED), po is 30 mg/kg. In addition, the “CAR (MED), sc” value in [1] (in mg/kg (unit assumed)) is reported as 0.3.

On to `CN1CCc2cc(Cl)c(O)cc2C2c3ccccc3CC21` (stereo not drawn) [Q=CH2, n=0, trans, X=Cl, Y=OH], for which the Ki in data set [2] was 10 nM.

With `CN1CCc2cc(Cl)c(N)cc2C2c3ccccc3CCC21` (stereo not drawn) [Q=CH2, n=1, trans, X=Cl, Y=NH2], the Ki in [2] was 70 nM. Besides, in [1], the “CAR (MED), po” value was 3 (po).

For the compound `COc1cc2c(cc1O)CCN(C)C1CCCc3ccccc3C21` (stereo not drawn) [Q=CH2, n=2, trans, X=HO, Y=CH3O], the figures for the Ki in data set [2] and in [10] (setting [11]) were 7730 nM and > 100000 nM, respectively. Further, in data set [1], the “CAR (MED), sc” value was 10 (sc).

As to `COc1cc2c(cc1O)C1c3ccccc3CCC1N(C)CC2` (stereo not drawn) [Q=CH2, n=1, trans, X=CH3O, Y=OH], the inhibitory constant (Ki) in data set [2] is 23 nM. In data set [1], the CAR (MED), po is 30 mg/kg. In addition, the “CAR (MED), sc” value in [1] (in mg/kg (unit assumed)) was 0.3-1.
